Assay results published in ChEMBL document CHEMBL1153245, “A profile of the in vitro anti-tumor activity of imidazolium-based ionic liquids” (2010).

Key:
Assay type in all cases: functional
[1] = system: T47D; assay: Anticancer activity against human T47D cells assessed cell growth at 10 uM after 48 hrs by sulforhodamine B assay relative to control
[2] = system: HL-60(TB); assay: Anticancer activity against human HL-60(TB) cells after 48 hrs by sulforhodamine B assay; conditions: Homo sapiens, HL-60, 48 h
[3] = system: OVCAR-8; assay: Anticancer activity against human OVCAR8 cells assessed cell growth at 10 uM after 48 hrs by sulforhodamine B assay relative to control
[4] = system: NCI/ADR-RES; assay: Anticancer activity against human NCI/ADR-RES cells after 48 hrs by sulforhodamine B assay; conditions: Homo sapiens, NCI/ADR-RES, 48 h
[5] = system: SR; assay: Anticancer activity against human SR cells after 48 hrs by sulforhodamine B assay; conditions: Homo sapiens, SR, 48 h
[6] = system: SF-295; assay: Anticancer activity against human SF295 cells after 48 hrs by sulforhodamine B assay; conditions: Homo sapiens, SF-295, 48 h
[7] = system: HCT-116; assay: Anticancer activity against human HCT116 cells after 48 hrs by sulforhodamine B assay; conditions: Homo sapiens, HCT-116, 48 h
[8] = system: TK-10; assay: Anticancer activity against human TK10 cells assessed cell growth at 10 uM after 48 hrs by sulforhodamine B assay relative to control
[9] = system: HCT-116; assay: Anticancer activity against human HCT116 cells assessed cell growth at 10 uM after 48 hrs by sulforhodamine B assay relative to control
[10] = system: SW-620; assay: Anticancer activity against human SW620 cells after 48 hrs by sulforhodamine B assay; conditions: Homo sapiens, SW-620, 48 h
[11] = system: OVCAR-5; assay: Anticancer activity against human OVCAR5 cells assessed cell growth at 10 uM after 48 hrs by sulforhodamine B assay relative to control
[12] = system: SK-MEL-28; assay: Anticancer activity against human SK-MEL-28 cells after 48 hrs by sulforhodamine B assay; conditions: Homo sapiens, SK-MEL-28, 48 h
[13] = system: Malme-3M; assay: Anticancer activity against human MALME-3M cells after 48 hrs by sulforhodamine B assay; conditions: Homo sapiens, Malme-3M, 48 h
[14] = system: SF-295; assay: Anticancer activity against human SF295 cells assessed cell growth at 10 uM after 48 hrs by sulforhodamine B assay relative to control
[15] = system: A498; assay: Anticancer activity against human A498 cells after 48 hrs by sulforhodamine B assay; conditions: Homo sapiens, A498, 48 h
[16] = system: COLO 205; assay: Anticancer activity against human COLO205 cells after 48 hrs by sulforhodamine B assay; conditions: Homo sapiens, COLO 205, 48 h
[17] = system: NCI-H460; assay: Anticancer activity against human NCI-H460 cells after 48 hrs by sulforhodamine B assay; conditions: Homo sapiens, NCI-H460, 48 h
[18] = system: KM12; assay: Anticancer activity against human KM12 cells assessed cell growth at 10 uM after 48 hrs by sulforhodamine B assay relative to control
[19] = system: MCF7; assay: Anticancer activity against human MCF7 cells assessed cell growth at 10 uM after 48 hrs by sulforhodamine B assay relative to control
[20] = system: A498; assay: Anticancer activity against human A498 cells assessed cell growth at 10 uM after 48 hrs by sulforhodamine B assay relative to control
[21] = system: SN12C; assay: Anticancer activity against human SN12C cells after 48 hrs by sulforhodamine B assay; conditions: Homo sapiens, SN12C, 48 h
[22] = system: UACC-62; assay: Anticancer activity against human UACC62 cells after 48 hrs by sulforhodamine B assay; conditions: Homo sapiens, UACC-62, 48 h
[23] = system: HCT-15; assay: Anticancer activity against human HCT15 cells after 48 hrs by sulforhodamine B assay; conditions: Homo sapiens, HCT-15, 48 h
[24] = system: OVCAR-3; assay: Anticancer activity against human OVCAR-3 cells after 48 hrs by sulforhodamine B assay; conditions: Homo sapiens, OVCAR-3, 48 h
[25] = system: DU-145; assay: Anticancer activity against human DU145 cells after 48 hrs by sulforhodamine B assay; conditions: Homo sapiens, DU-145, 48 h
[26] = system: HCT-15; assay: Anticancer activity against human HCT15 cells assessed cell growth at 10 uM after 48 hrs by sulforhodamine B assay relative to control
[27] = system: SK-OV-3; assay: Anticancer activity against human SKOV3 cells after 48 hrs by sulforhodamine B assay; conditions: Homo sapiens, SK-OV-3, 48 h
[28] = system: MDA-MB-435; assay: Anticancer activity against human MDA-MB-435 cells after 48 hrs by sulforhodamine B assay; conditions: Homo sapiens, MDA-MB-435, 48 h
[29] = Anticancer activity against human Hs 578T cells after 48 hrs by sulforhodamine B assay; conditions: Homo sapiens, Hs-578T, 48 h
[30] = system: OVCAR-5; assay: Anticancer activity against human OVCAR5 cells after 48 hrs by sulforhodamine B assay; conditions: Homo sapiens, OVCAR-5, 48 h
[31] = system: SK-OV-3; assay: Anticancer activity against human SKOV3 cells assessed cell growth at 10 uM after 48 hrs by sulforhodamine B assay relative to control
[32] = system: MDA-MB-468; assay: Anticancer activity against human MDA-MB-468 cells after 48 hrs by sulforhodamine B assay; conditions: Homo sapiens, MDA-MB-468, 48 h
[33] = system: MCF7; assay: Anticancer activity against human MCF7 cells after 48 hrs by sulforhodamine B assay; conditions: Homo sapiens, MCF7, 48 h
[34] = system: SF-268; assay: Anticancer activity against human SF268 cells assessed cell growth at 10 uM after 48 hrs by sulforhodamine B assay relative to control
[35] = system: NCI-H226; assay: Anticancer activity against human NCI-H226 cells after 48 hrs by sulforhodamine B assay; conditions: Homo sapiens, NCI-H226, 48 h
[36] = system: SF-268; assay: Anticancer activity against human SF268 cells after 48 hrs by sulforhodamine B assay; conditions: Homo sapiens, SF-268, 48 h
[37] = system: SW-620; assay: Anticancer activity against human SW620 cells assessed cell growth at 10 uM after 48 hrs by sulforhodamine B assay relative to control
[38] = system: NCI-H322M; assay: Anticancer activity against human NCI-H322M cells after 48 hrs by sulforhodamine B assay; conditions: Homo sapiens, NCI-H322M, 48 h
[39] = system: ACHN; assay: Anticancer activity against human ACHN cells after 48 hrs by sulforhodamine B assay; conditions: Homo sapiens, ACHN, 48 h
[40] = system: MDA-MB-435; assay: Anticancer activity against human MDA-MB-435 cells assessed cell growth at 10 uM after 48 hrs by sulforhodamine B assay relative to control
[41] = system: T47D; assay: Anticancer activity against human T47D cells after 48 hrs by sulforhodamine B assay; conditions: Homo sapiens, T47D, 48 h
[42] = read-out: LC50 (the source's name)

`CCCCCCCCCCCCCCCCCC[n+]1ccn(C)c1.FC(F)(F)C(F)(F)[P-](F)(F)(F)(C(F)(F)C(F)(F)F)C(F)(F)C(F)(F)F` showed an Activity [1] of 32.25%, a GI50 [2] of 238 nM and a CC50 [2, 42] of over 100000 nM. It also gave an Activity [3] of -31.79%, a GI50 [4] of 412 nM and an LC50 [4] of 12500 nM. It also gave a GI50 [5] of 3370 nM, a CC50 [5, 42] of over 100000 nM and a GI50 [6] of 275 nM. For the same compound, the CC50 [6, 42] was 5770 nM, the GI50 [7] was 294 nM and the CC50 [7, 42] was over 100000 nM. The Activity [8] was -60.38%, the Activity [9] was -57.3% and the GI50 [10] was 328 nM. The LC50 [10] was 3740 nM, the Activity [11] was -56.76% and the GI50 [12] was 374 nM. It also gave an LC50 [12] of 3980 nM, a GI50 [13] of 271 nM and an LC50 (concentration killing 50% of cells) [13] of 4250 nM. For the same compound, the Activity [14] was -26.82%, the GI50 [15] was 371 nM and the CC50 [15, 42] was 3390 nM. It also gave a GI50 [16] of 196 nM, a CC50 [16, 42] of 778 nM and a GI50 [17] of 323 nM. It also gave an LC50 [17] of 4850 nM, an Activity [18] of -56.04% and an Activity [19] of 2.61%. It also gave an Activity [20] of -47.4%, a GI50 [21] of 353 nM and an LC50 [21] of 4180 nM. It also gave a GI50 [22] of 500 nM, an LC50 [22] of 4660 nM and a GI50 [23] of 309 nM. The CC50 [23, 42] was 4410 nM, the GI50 [24] was 316 nM and the LC50 (50% lethal concentration) [24] was 3790 nM. For the same compound, the GI50 [25] was 495 nM, the CC50 [25, 42] was 4430 nM and the Activity [26] was -23.91%. For the same compound, the GI50 [27] was 355 nM, the CC50 [27, 42] was 3830 nM and the GI50 [28] was 344 nM. It also gave a CC50 [28, 42] of 2930 nM, a GI50 [29] of 287 nM and a CC50 [29, 42] of 5430 nM. It also gave a GI50 [30] of 489 nM, a CC50 [30, 42] of 32700 nM and an Activity [31] of 10.45%. It also gave a GI50 [32] of 173 nM, an LC50 [32] of over 100000 nM and a GI50 [33] of 309 nM. The LC50 (50% cell kill) [33] was 4690 nM, the Activity [34] was -47.08% and the GI50 [35] was 435 nM. For the same compound, the LC50 [35] was 8230 nM, the GI50 [36] was 481 nM and the CC50 [36, 42] was 5790 nM. The Activity [37] was -25.6%, the GI50 [38] was 406 nM and the LC50 [38] was 5540 nM. The GI50 [39] was 281 nM, the LC50 [39] was 3550 nM and the Activity [40] was -52.89%. The GI50 [41] was 282 nM and the CC50 [41, 42] was 63700 nM.
